# Experiments:
# [1] = system: fasting plasma glucose (FPG) concentrations in diabetic patients; assay: PK/PD model (modified indirect response model IV) of the effect of Compound (I) on fasting plasma glucose in Type 2 diabetes patients; type: in vivo, human
# From the text: The method by which the Threshold Plasma Concentration, such as the SC50 concentration, for a given compound can be determined is:
# 2) the model predicted concentrations for the compound are then fed back into the model and used to determine the change in fasting plasma glucose levels after various doses;
# 3) the relationship between predicted plasma concentrations of compound and fasting plasma glucose can suitably be determined using an indirect pharmacological response model (model IV), for example that described in (Dayneka N L, Garg V and Jusko W J, Comparison of Four Basic Models of Indirect Pharmacodynamic Responses. J of Pharmacokinetics and Biopharmaceutics. Vol 21, No 4. 1993). This model yields estimates of glucose input rate (Kin) and output rate (Kout), maximal stimulation of glucose output (Smax). Hill coefficient (gamma) and the Threshold Plasma Concentration, such as the SC50 concentration (i.e the concentration associated with a half maximal response) to be determined for that compound. This method forms a further part of the present invention.
# For Compound (I), it was necessary to account for a time delay between the time of actual initiation of dosing (week 0) and the observed change in fasting plasma glucose. This delay factor was estimated through the modelling for each dose level. […] The delay factor was incorporated into the model for deriving fasting plasma glucose by assuming that the first dose of drug occurred only after the time dictated by the delay factor. It is considered that for this model a delay factor would be required for other thiazolidinedione insulin sensitisers and that this factor will be substantially similar to that found for Compound (I). Delay factors for other compounds may also be required to be determined using similar methodology to that disclosed herein.
# A modified indirect response model IV (Dayneka et al. 1993) was developed utilizing the pharmacokinetics of Compound (I) as the driving force for the change in fasting plasma glucose after various doses of Compound (I). Modeling fittings were done using ADAPT II, Release 4 (D'Argenio and Schumitzky, 1979).
# In the absence of Compound (I), plasma glucose levels are governed by formation (kin) and utilization (kout). The action of Compound (I) was described as stimulation (S(t)) of the utilization of plasma glucose (kout), described in text as FPG reduction (Eq. 1). Smax represents the maximal stimulation, SC50 is the Compound (I) concentration associated with half-maximal stimulation and γ represents a sigmoidicity parameter in the Hill type function (Eq. 2). [formula]
# The mean fasting plasma glucose profiles from 6 weeks prior to dosing (time 0) through 26 weeks of treatment for the 5 treatment groups are shown in FIG. 2. The PK/PD model accommodates the full nature of the fasting plasma glucose response over the duration of the study period as evidenced by the close agreement between observed and predicted fasting plasma glucose concentrations (FIG. 2). […] The lag-time allows the model to describe the slow onset of action of Compound (I) observed over the first 4 weeks of dosing.
# [2] = human, in vivo
# Experimental: Dose regimens evaluated were: 4 mg once daily and 2 mg twice daily, and 8 mg once daily and 4 mg twice daily.
compound,measurement,setting,value
"CN(CCOc1ccc(CC2SC(=O)NC2=O)cc1)c1ccccn1 (stereo not shown) [Compound (I), 5-[4-[2-(N-methyl-N-(2-pyridyl)amino)ethoxy]benzyl]thiazolidine-2,4-dione]",EC50,"[1]; Homo sapiens, iv, estimated pharmacodynamic parameter, not in table, read-out: SC50 (plasma concentration associated with half-maximal effect on fasting plasma glucose)",0.0514 µg/mL
same,Smax (maximal stimulation of glucose utilization),[1]; estimated pharmacodynamic parameter,0.44
same,lag-time (delay) between first dose and onset of FPG response,"[1]; mean across dose levels, estimated through the modelling",292 h
same,maximum FPG reduction suggested by Smax of the model,[1]; model-derived,160 mg/dL
same,reduction in glycaemia,"[1]; once daily dosing, study 024",clinically meaningful reductions in glycaemia are evident
same,efficacy of twice daily versus once daily dosing,"[1]; study 024, same total daily dose",twice daily dosing tended to be more efficacious than once daily
same,mean post hoc oral clearance,[2],2.68 L/h
